A value given as a limit tells only on which side of the number the result lay.

For the test, the target named is T1, GLP-1R (Homo sapiens, UniProt P43220).
T1 construct: host or cells: GLP-1R CRE-bla CHO-K1 cells
T1 sequence (P43220 24-463): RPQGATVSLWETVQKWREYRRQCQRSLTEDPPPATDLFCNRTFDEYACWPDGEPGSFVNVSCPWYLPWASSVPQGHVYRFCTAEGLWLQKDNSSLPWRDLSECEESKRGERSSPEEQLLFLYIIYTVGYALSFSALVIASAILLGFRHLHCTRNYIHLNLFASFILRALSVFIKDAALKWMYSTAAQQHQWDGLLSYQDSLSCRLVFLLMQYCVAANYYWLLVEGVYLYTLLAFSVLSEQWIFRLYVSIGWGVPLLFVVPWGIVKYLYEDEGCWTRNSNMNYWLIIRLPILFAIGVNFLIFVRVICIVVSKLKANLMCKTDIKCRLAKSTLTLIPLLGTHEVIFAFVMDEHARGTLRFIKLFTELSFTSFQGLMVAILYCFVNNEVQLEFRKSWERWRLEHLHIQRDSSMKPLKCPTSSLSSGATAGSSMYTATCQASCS
T1 sequence (P01275 100-127 partner limits assumed): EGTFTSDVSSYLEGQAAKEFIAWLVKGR
Put plainly: EC20 GLP-1(9-36) PAM cAMP assay: dose response of compound in the presence of fixed concentration of GLP-1(9-36). Format: cell-based. The conditions noted are these: GLP-1R CRE-bla CHO-K1 cells, compound dose response with fixed concentration of GLP-1(9-36), read-out: EC20 GLP-1(9-36) PAM EC50. In outline:
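GLP-1R CRE-bla CHO-K1 cells treated 30 min at 37 °C with 12-point compound dose response plus fixed EC20 GLP-1(9-36), with IBMX, in HBSS/HEPES/0.1% BSA pH 7.4. Total cAMP measured by luminescent detection against standard curve; EC50 and Emax from non-linear regression.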
(In general: cAMP levels reflect the balance of adenylyl cyclase and phosphodiesterase activity.)
Usually EC50 stands for the concentration needed to bring the measured effect to its halfway point. As for `CC(C)(C)c1ccc(C(=O)N[C@@H](Cc2ccc(-c3ncc(N4CCC(c5ccc(C(F)(F)F)cc5)CC4)cn3)cc2)C(=O)N2CC(C(=O)O)C2)s1` [Compound 1481], the EC50 is < 800 nM.

Turning to `CC(C)(C)c1ccc(C(=O)N[C@@H](Cc2ccc(-c3ncc(N4CCC(c5cccc(C(F)(F)F)c5)CC4)cn3)cc2)C(=O)N2CC(C(=O)O)C2)s1` [Compound 1482], the EC50 was 800 to 2500 nM.

On to `COc1ccc(C2CCN(c3cnc(-c4ccc(CC(NC(=O)c5ccc(C(C)(C)C)s5)C(=O)N5CC(C(=O)O)C5)cc4)nc3)CC2)c(C)c1` (centres unmarked) [Compound 1483], for which the EC50 was in the range of 800 to 2500 nM.

As for `CC(C)(C)c1ccc(C(=O)NC(Cc2ccc(-c3ncc(N4CCC(c5cccc(F)c5)CC4)cn3)cc2)C(=O)N2CC(C(=O)O)C2)s1` (centres unmarked) [Compound 1484], the EC50 was in the range of 800 to 2500 nM.

For `CN(CCC(C)(O)c1cccc(OC(F)(F)F)c1)c1cnc(-c2ccc(CC(NC(=O)c3ccc(C(C)(C)C)s3)C(=O)N3CC(C(=O)O)C3)cc2)nc1` (centres unmarked) [Compound 1485], the EC50 was < 800 nM.

For `CN(C)c1ccc(C2CCN(c3cnc(-c4ccc(CC(NC(=O)c5ccc(C(C)(C)C)s5)C(=O)N5CC(C(=O)O)C5)cc4)nc3)CC2)cc1` (centres unmarked) [Compound 1486], the EC50 is 800 to 2500 nM.

Take `CC(C)(C)c1ccc(C(=O)NC(Cc2ccc(-c3ncc(N4CCC(c5ccc(Br)cc5)CC4)cn3)cc2)C(=O)N2CC(C(=O)O)C2)s1` (centres unmarked) [Compound 1487]: the EC50 lay within 800 to 2500 nM.

Consider `CC(C)(C)c1ccc(C(=O)N[C@@H](Cc2ccc(-c3ncc(N4CCC(c5cccc(Br)c5)CC4)cn3)cc2)C(=O)N2CC(C(=O)O)C2)s1` [Compound 1488], for which the EC50 is 800 to 2500 nM.

In the case of `COc1ccc(C2CCN(c3cnc(-c4ccc(CC(NC(=O)c5ccc(C(C)(C)C)s5)C(=O)N5CC(C(=O)O)C5)cc4)nc3)CC2)cc1` (centres unmarked) [Compound 1489], the EC50 is < 800 nM.

For the compound `CCOc1ccc(C2CCN(c3cnc(-c4ccc(CC(NC(=O)c5ccc(C(C)(C)C)s5)C(=O)N5CC(C(=O)O)C5)cc4)nc3)CC2)cc1` (centres unmarked) [Compound 1490], the EC50 fell in the range of 800 to 2500 nM.

`CC(C)(C)c1ccc(C(=O)NC(Cc2ccc(-c3ncc(N4CCC(c5ccccc5F)CC4)cn3)cc2)C(=O)N2CC(C(=O)O)C2)s1` (centres unmarked) [Compound 1491]: the EC50 was 800 to 2500 nM.

In the case of `COc1ccccc1C1CCN(c2cnc(-c3ccc(C[C@H](NC(=O)c4ccc(C(C)(C)C)s4)C(=O)N4CC(C(=O)O)C4)cc3)nc2)CC1` [Compound 1492], the EC50 lay within 800 to 2500 nM.

Regarding `CC(C)(C)c1ccc(C2CCN(c3cnc(-c4ccc(C[C@H](NC(=O)c5ccc(C(C)(C)C)s5)C(=O)N5CC(C(=O)O)C5)cc4)nc3)CC2)cc1` [Compound 1493], the EC50 is < 800 nM.

As for `CCCOc1ccc(C2CCN(c3cnc(-c4ccc(C[C@H](NC(=O)c5ccc(C(C)(C)C)s5)C(=O)N5CC(C(=O)O)C5)cc4)nc3)CC2)cc1` [Compound 1494], the EC50 was in the range of 800 to 2500 nM.

As to `COCCc1ccc(C2CCN(c3cnc(-c4ccc(C[C@H](NC(=O)c5ccc(C(C)(C)C)s5)C(=O)N5CC(C(=O)O)C5)cc4)nc3)CC2)cc1` [Compound 1495], the EC50 lay within 800 to 2500 nM.

On to `CCCC1CCC(C2CCN(c3cnc(-c4ccc(C[C@H](NC(=O)c5ccc(C(C)(C)C)s5)C(=O)N5CC(C(=O)O)C5)cc4)nc3)C(=O)C2)CC1` (some centres unmarked) [Compound 1496], for which the EC50 was in the range of 800 to 2500 nM.

Consider `CCCC1CCN(C(=O)C(C)(C)CNc2cnc(-c3ccc(C[C@H](NC(=O)c4ccc(C(C)(C)C)s4)C(=O)N4CC(C(=O)O)C4)cc3)nc2)CC1` [Compound 1497], for which the EC50 fell in the range of 2500 to 5000 nM.

With `CCCc1ccc(C2CCN(c3cnc(-c4ccc(C[C@H](NC(=O)c5ccc(C(C)(C)C)s5)C(=O)N5CC(C(=O)O)C5)cc4)nc3)CC2)cn1` [Compound 1498], the EC50 fell in the range of 800 to 2500 nM.

In the case of `CCCc1cnc(C2CCN(c3cnc(-c4ccc(C[C@H](NC(=O)c5ccc(C(C)(C)C)s5)C(=O)N5CC(C(=O)O)C5)cc4)nc3)CC2)nc1` [Compound 1499], the EC50 is 2500 to 5000 nM.

In the case of `CC(C)(C)c1ccc(C(=O)N[C@@H](Cc2ccc(-c3ncc(N4CCC(c5ccc(CC#N)cc5)CC4)cn3)cc2)C(=O)N2CC(C(=O)O)C2)s1` [Compound 1500], the EC50 lay in the range of 5000 to 10000 nM.

With `CCCc1ccc(C2CCN(c3cnc(-c4ccc(C[C@H](NC(=O)c5ccc(C(C)(C)C)s5)C(=O)N5CC(C(=O)O)C5)cc4)nc3)CC2)nn1` [Compound 1501], the EC50 is 5000 to 10000 nM.

For the compound `CCCc1ccc(C2CN(c3cnc(-c4ccc(C[C@H](NC(=O)c5ccc(C(C)(C)C)s5)C(=O)N5CC(C(=O)O)C5)cc4)nc3)C2)cc1` [Compound 1502], the EC50 is 2500 to 5000 nM.

For `CCCCc1ccc(C2CN(c3cnc(-c4ccc(C[C@H](NC(=O)c5ccc(C(C)(C)C)s5)C(=O)N5CC(C(=O)O)C5)cc4)nc3)C2)cc1` [Compound 1503], the EC50 lay within 800 to 2500 nM.

As to `CCCc1ccc(C2CCN(c3cnc(-c4ccc(C[C@H](NC(=O)c5ccc(C(C)(C)C)s5)C(=O)N5CC(C(=O)O)C5)cc4)nc3)C2)cc1` (some centres unmarked) [Compound 1504], the EC50 lay in the range of 800 to 2500 nM.

In the case of `CCCCc1ccc(C2CCN(c3cnc(-c4ccc(C[C@H](NC(=O)c5ccc(C(C)(C)C)s5)C(=O)N5CC(C(=O)O)C5)cc4)nc3)C2)cc1` (some centres unmarked) [Compound 1505], the EC50 fell in the range of 800 to 2500 nM.

For `CCCCC1CCN(C2CCN(c3cnc(-c4ccc(C[C@H](NC(=O)c5ccc(C(C)(C)C)s5)C(=O)N5CC(C(=O)O)C5)cc4)nc3)CC2)C(=O)C1` (some centres unmarked) [Compound 1506], the EC50 is 5000 to 10000 nM.

Regarding `CCCc1ccc(C2CCCN(c3cnc(-c4ccc(C[C@H](NC(=O)c5ccc(C(C)(C)C)s5)C(=O)N5CC(C(=O)O)C5)cc4)nc3)CC2)cc1` (some centres unmarked) [Compound 1507], the EC50 was in the range of 800 to 2500 nM.

In the case of `CCCCc1ccc(C2CCCN(c3cnc(-c4ccc(C[C@H](NC(=O)c5ccc(C(C)(C)C)s5)C(=O)N5CC(C(=O)O)C5)cc4)nc3)CC2)cc1` (some centres unmarked) [Compound 1508], the EC50 is < 800 nM.

For the compound `CCCc1ccc(CC2CN(c3cnc(-c4ccc(CC(NC(=O)c5ccc(C(C)(C)C)s5)C(=O)N5CC(C(=O)O)C5)cc4)nc3)C2)cc1` (centres unmarked) [Compound 1509], the EC50 lay in the range of 5000 to 10000 nM.

`CCCCc1ccc(CC2CN(c3cnc(-c4ccc(CC(NC(=O)c5ccc(C(C)(C)C)s5)C(=O)N5CC(C(=O)O)C5)cc4)nc3)C2)cc1` (centres unmarked) [Compound 1510]: the EC50 is 2500 to 5000 nM.

Take `CCCc1ccc(N2CCN(c3cnc(-c4ccc(C[C@H](NC(=O)c5ccc(C(C)(C)C)s5)C(=O)N5CC(C(=O)O)C5)cc4)nc3)CC2)cc1` [Compound 1511]: the EC50 is < 800 nM.

For the compound `CCC[C@H]1CC[C@H](C2CC(=O)N(c3cnc(-c4ccc(C[C@H](NC(=O)c5ccc(C(C)(C)C)s5)C(=O)N5CC(C(=O)O)C5)cc4)nc3)C(=O)C2)CC1` [Compound 1512], the EC50 is < 800 nM.

Turning to `CCC[C@H]1CC[C@H](C2CCN(c3cnc(-c4ccc(C[C@H](NC(=O)c5ccc(C(C)(C)C#N)s5)C(=O)N5CC(C(=O)O)C5)cc4)nc3)CC2)CC1` [Compound 1513], the EC50 was < 800 nM.

In the case of `CCC[C@H]1CC[C@H](C2CCN(c3cnc(-c4ccc(C[C@H](NC(=O)c5cnc(C(C)(C)C)nc5)C(=O)N5CC(C(=O)O)C5)cc4)nc3)CC2)CC1` [Compound 1514], the EC50 was < 800 nM.

`CCC[C@H]1CC[C@H](C2CCN(c3cnc(-c4ccc(C[C@H](NC(=O)c5ccc(C6CC6)s5)C(=O)N5CC(C(=O)O)C5)cc4)nc3)CC2)CC1` [Compound 1515]: the EC50 was < 800 nM.

With `CCC[C@H]1CC[C@H](C2CCN(c3cnc(-c4ccc(C[C@H](NC(=O)c5cnn(C(C)(C)C)c5)C(=O)N5CC(C(=O)O)C5)cc4)nc3)CC2)CC1` [Compound 1516], the EC50 is < 800 nM.

As to `CN(C)c1ccc(C2CCN(c3cnc(-c4ccc(CC(NC(=O)c5ccc(C(C)(C)C)s5)C(=O)N5CC(C(=O)O)C5)cc4)nc3)CC2)cc1` (centres unmarked) [Compound 1517], the EC50 was < 800 nM.

With `CCC[C@H]1CC[C@H](C2CCN(c3cnc(-c4ccc(C[C@H](NC(=O)c5ccc(C(C)(C)CC)cc5)C(=O)N5CC(C(=O)O)C5)cc4)nc3)CC2)CC1` [Compound 1518], the EC50 was < 800 nM.

With `CCC[C@H]1CC[C@H](C2CCN(c3cnc(-c4ccc(C[C@H](NC(=O)c5ccc(C6(C)CC6)cc5)C(=O)N5CC(C(=O)O)C5)cc4)nc3)CC2)CC1` [Compound 1519], the EC50 was < 800 nM.

As for `CCC[C@H]1CC[C@H](C2CCN(c3cnc(-c4ccc(C[C@H](NC(=O)c5ccc(C6CC6)cc5)C(=O)N5CC(C(=O)O)C5)cc4)nc3)CC2)CC1` [Compound 1520], the EC50 was < 800 nM.

Take `CCCc1ccc(C(=O)N[C@@H](Cc2ccc(-c3ncc(N4CCC([C@H]5CC[C@H](CCC)CC5)CC4)cn3)cc2)C(=O)N2CC(C(=O)O)C2)cc1` [Compound 1521]: the EC50 was < 800 nM.

In the case of `CCC[C@H]1CC[C@H](C2CCN(c3cnc(-c4ccc(C[C@H](NC(=O)c5ccc(CC(C)C)s5)C(=O)N5CC(C(=O)O)C5)cc4)nc3)CC2)CC1` [Compound 1522], the EC50 is < 800 nM.

Take `CCC[C@H]1CC[C@H](C2CCN(c3cnc(-c4ccc(C[C@H](NC(=O)c5ccc(S(=O)(=O)C(C)C)cc5)C(=O)N5CC(C(=O)O)C5)cc4)nc3)CC2)CC1` [Compound 1523]: the EC50 was in the range of 800 to 2500 nM.

With `CCC[C@H]1CC[C@H](C2CCN(c3cnc(-c4ccc(C[C@H](NC(=O)c5ccc(OC(C)(C)C)cc5)C(=O)N5CC(C(=O)O)C5)cc4)nc3)CC2)CC1` [Compound 1524], the EC50 is < 800 nM.

Regarding `CCC[C@H]1CC[C@H](C2CCN(c3cnc(-c4ccc(C[C@H](NC(=O)c5cc6cc(OC)ccc6[nH]5)C(=O)N5CC(C(=O)O)C5)cc4)nc3)CC2)CC1` [Compound 1525], the EC50 is < 800 nM.

Regarding `CCC[C@H]1CC[C@H](C2CCN(c3cnc(-c4ccc(C[C@H](NC(=O)c5ccc(C(C)(C)C#N)cc5)C(=O)N5CC(C(=O)O)C5)cc4)nc3)CC2)CC1` [Compound 1526], the EC50 is < 800 nM.

`CCC[C@H]1CC[C@H](C2CCN(c3cnc(-c4ccc(C[C@H](NC(=O)[C@H]5CC[C@H](C(C)(C)C)CC5)C(=O)N5CC(C(=O)O)C5)cc4)nc3)CC2)CC1` [Compound 1527]: the EC50 lay within 800 to 2500 nM.

Source of the values: patent US10034886B2, “GLP-1 receptor modulators” (Celgene International II SÀRL, priority 2014, dated 2018).
